Compound: CCOc1cc2ncc(C#N)c(Nc3ccc(OCc4ccccn4)c(Cl)c3)c2cc1NC(=O)/C=C/CN(C)C [Neratinib]
Assay: relative viability (nuclei count vs DMSO), 5 days (fraction); higher = more cells survive
Outline: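 Cells of lung cancer lines were placed in 1536-well plates and kept overnight at 37 °C. Pinning then delivered five library-drug doses (not always all listed), spaced by √10, onto plates anchored with vehicle, and the cells were left 5 days without changing medium. One step fixed, permeabilised and stained them with Hoechst, and MetaXpress counted nuclei in 4× images. Viability, as a median over plates, is treated-well nuclei divided by vehicle-well nuclei, with acceptance only at control CV below 25% and at least one doubling.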

Cell Line | relative viability (0.01 µM) | relative viability (0.03162 µM) | relative viability (0.1 µM) | relative viability (0.3162 µM) | relative viability (1 µM)
201T | 1.01 | 0.996 | 0.929 | 1.02 | 0.934
A549 | 1.06 | 1.07 | 0.856 | 0.911 | 0.516
A-427 | 1.19 | 1.1 | 1.01 | 0.949 | 0.986
ABC-1 | 1.06 | 1.06 | 0.898 | 0.777 | 0.364
BEN | – | 1.18 | 1.03 | 0.849 | 0.753
CAL-12T | 1.06 | 1.09 | 0.868 | 0.631 | 0.301
COR-L23 | 1.21 | 1.17 | 0.87 | 1.02 | 0.86
COR-L 105 | 0.904 | – | 0.687 | 0.329 | 0.297
Calu-6 | 1.06 | – | 0.992 | 0.955 | 0.835
ChaGo-K-1 | 0.995 | 1.12 | 0.896 | 0.865 | 0.971
EBC-1 | 1.02 | 1.12 | 0.872 | 0.993 | 0.813
EKVX | 1.04 | 0.976 | 0.812 | 0.43 | 0.25
EMC-BAC-2 | 1.32 | 1.01 | 0.977 | 0.935 | 0.722
EPLC-272H | 0.867 | 0.869 | 0.841 | 0.666 | 0.358
H3255 | 1.07 | 0.985 | 0.78 | 0.327 | 0.224
HARA | 1.02 | 1.05 | 0.668 | 0.663 | 0.644
HCC-15 | 1.04 | 1.15 | 0.932 | 0.878 | 0.886
HCC-44 | 1.06 | 1.01 | 1.01 | 0.943 | 1.06
HCC-78 | 1.07 | 1.03 | 0.892 | 0.87 | 0.475
HCC-366 | 1.05 | 1.1 | – | 1.01 | –
HCC-827 | 1.09 | 1.13 | 0.982 | 0.679 | 0.183
HOP-62 | 1.02 | 1.15 | 0.934 | 0.914 | 1.09
IA-LM | 1.03 | 1.04 | 0.943 | 0.881 | 0.562
LC-2-ad | 1.01 | 1.03 | 0.915 | 0.738 | 0.797
LCLC-97TM1 | 1.05 | 1.08 | 0.955 | 0.689 | 0.696
LCLC-103H | 0.996 | 0.997 | 0.897 | 1.07 | 0.989
LK-2 | 1.12 | 1.05 | 0.988 | 0.718 | 0.499

Cell Line | relative viability (0.01 µM) | relative viability (0.03162 µM) | relative viability (0.1 µM) | relative viability (0.3162 µM) | relative viability (1 µM)
LOU-NH91 | 0.988 | 0.92 | 0.796 | 0.691 | 0.676
LU99A | 0.948 | 1.04 | 0.908 | 0.891 | 0.646
LXF-289 | 1.03 | 1.07 | 0.948 | 1.05 | 1.01
NCI-H23 | 1.1 | 1.15 | 0.811 | 0.922 | 0.739
NCI-H322M | 0.956 | 0.926 | 0.784 | 0.491 | 0.288
NCI-H358 | 0.949 | 0.792 | 0.556 | 0.275 | 0.242
NCI-H441 | 1.32 | 1.15 | 0.89 | – | 0.529
NCI-H460 | – | 1.11 | 0.865 | 0.978 | 0.981
NCI-H520 | 1.11 | 1.07 | 0.937 | 0.922 | 0.649
NCI-H522 | 0.982 | – | 0.876 | 0.692 | 0.59
NCI-H596 | 1.01 | 1.03 | 0.984 | 1.09 | 0.817
NCI-H647 | 1.07 | 1 | 0.931 | – | 0.483
NCI-H650 | 1.02 | 1.04 | 1.12 | 0.662 | 0.877
NCI-H661 | 1.1 | 0.999 | 0.808 | 0.57 | 0.448
NCI-H727 | – | 0.878 | 0.639 | 0.884 | 0.624
NCI-H838 | 1 | 1.02 | 0.88 | 0.946 | 0.532
NCI-H1299 | 1.01 | – | 0.89 | 1.03 | 1.06
NCI-H1355 | 1.11 | 1.02 | 0.833 | 0.933 | 0.826
NCI-H1395 | 0.994 | 0.948 | 0.992 | 0.917 | 0.654
NCI-H1437 | 1.05 | 1.03 | 0.95 | 0.94 | 0.95
NCI-H1563 | 1.03 | 1.07 | 0.915 | 0.864 | 0.706
NCI-H1648 | 0.819 | 0.931 | 0.657 | 0.383 | 0.432
NCI-H1650 | 0.985 | 0.906 | 0.833 | 0.68 | 0.694
NCI-H1651 | 1.04 | 1.08 | 0.952 | 0.907 | 0.822
NCI-H1666 | 1 | 1.03 | 0.884 | 0.76 | 0.78
NCI-H1703 | 1.16 | 0.951 | 0.909 | 0.778 | 0.388
NCI-H1734 | 1.05 | 1.05 | 0.914 | 0.929 | 0.734

Cell Line | relative viability (0.01 µM) | relative viability (0.03162 µM) | relative viability (0.1 µM) | relative viability (0.3162 µM) | relative viability (1 µM)
NCI-H1755 | – | 1.01 | 0.858 | 1.02 | 1.05
NCI-H1792 | 1.33 | 1.19 | 0.808 | – | 0.813
NCI-H1793 | 1.11 | 1 | 0.682 | 0.749 | 0.527
NCI-H1915 | 1.07 | 1.03 | 0.972 | 0.916 | 1.05
NCI-H1944 | 1.18 | 0.977 | 0.865 | 0.767 | 0.569
NCI-H1975 | 1.07 | 1.1 | 0.905 | 0.58 | 0.244
NCI-H1993 | 1.03 | 0.837 | 0.719 | 0.685 | 0.731
NCI-H2009 | 1.01 | 1.05 | 0.989 | 0.927 | 0.96
NCI-H2023 | 0.997 | 0.824 | – | 0.881 | 0.707
NCI-H2085 | 0.977 | 1.01 | 0.871 | 0.891 | 0.814
NCI-H2087 | 1.15 | 0.894 | 0.829 | 0.883 | 0.644
NCI-H2126 | 1.03 | 0.998 | 0.904 | 0.907 | 0.553
NCI-H2170 | 0.995 | 0.994 | 0.62 | 0.26 | 0.24
NCI-H2228 | – | 1.21 | 0.973 | 0.858 | 0.223
NCI-H2342 | 0.949 | 1.01 | 0.765 | 0.582 | 0.66
NCI-H2347 | 1.07 | 1.08 | 0.904 | 1.08 | –
NCI-H2405 | 1.06 | 1.07 | 0.989 | 0.98 | 0.739
NCI-H3122 | – | 1.02 | 0.931 | 0.991 | 0.5
PC-3 [JPC-3] | 1.07 | 1.12 | 0.947 | 0.687 | 0.471
PC-14 | 1.1 | 1.13 | 0.964 | 0.732 | 0.211
RERF-LC-KJ | 1 | 0.998 | 0.86 | 0.806 | 0.556
SK-LU-1 | 1.1 | 1.2 | – | 0.979 | 0.46
SK-MES-1 | 1.06 | 1.09 | 0.91 | 0.463 | 0.298
SW 900 | – | 1.05 | 0.772 | 0.94 | 0.94
SW 1573 | 1.09 | 1.18 | 0.828 | 0.912 | 0.716
UMC-11 | 0.901 | 1.14 | 0.748 | 0.898 | 0.832
